# Measured values published in PubChem BioAssay AID1259407 (Chemical Carcinogenesis Research Information System (CCRIS), 2018).
# Activity calls are given as the source filed them. No rule for the calls is given here.
# Test system: CCRIS mutagenicity, Ames/micronucleus/aberration tests
# Experiment: CCRIS mutagenicity studies
# [1] = Test System: AMES SALMONELLA TYPHIMURIUM, Strain/Indicator: TA98, Metabolic Activation: NONE, Method: STANDARD PLATE
# [2] = Test System: AMES SALMONELLA TYPHIMURIUM, Strain/Indicator: TA100, Metabolic Activation: NONE, Method: STANDARD PLATE
# [3] = Test System: AMES SALMONELLA TYPHIMURIUM, Strain/Indicator: TA1535, Metabolic Activation: NONE, Method: STANDARD PLATE
# [4] = Test System: AMES SALMONELLA TYPHIMURIUM, Strain/Indicator: TA1537, Metabolic Activation: NONE, Method: STANDARD PLATE
# [5] = Test System: AMES SALMONELLA TYPHIMURIUM, Strain/Indicator: TA98, Metabolic Activation: NONE, Method: PREINCUBATION
# [6] = Test System: AMES SALMONELLA TYPHIMURIUM, Strain/Indicator: TA100, Metabolic Activation: NONE, Method: PREINCUBATION
# [7] = Test System: AMES SALMONELLA TYPHIMURIUM, Strain/Indicator: TA102, Metabolic Activation: NONE, Method: PREINCUBATION
structure (smiles),measurement,setting,value
C[C@]12CC[C@H](OC(=O)COc3ccc(N(CCCl)CCCl)cc3)C[C@@H]1CC[C@@H]1[C@@H]2CC[C@]2(C)NC(=O)CC[C@@H]12,mutagenic call,[1],inactive; negative
same,mutagenic call,"Test System: AMES SALMONELLA TYPHIMURIUM, Strain/Indicator: TA98, Metabolic Activation: RAT, LIVER, S-9, AROCLOR 1254, Method: STANDARD PLATE",inactive; negative
same,mutagenic call,[2],active; positive
same,mutagenic call,"Test System: AMES SALMONELLA TYPHIMURIUM, Strain/Indicator: TA100, Metabolic Activation: RAT, LIVER, S-9, AROCLOR 1254, Method: STANDARD PLATE",active; positive
same,mutagenic call,[3],active; positive
same,mutagenic call,"Test System: AMES SALMONELLA TYPHIMURIUM, Strain/Indicator: TA1535, Metabolic Activation: RAT, LIVER, S-9, AROCLOR 1254, Method: STANDARD PLATE",active; positive
same,mutagenic call,"Test System: AMES SALMONELLA TYPHIMURIUM, Strain/Indicator: TA1535, Metabolic Activation: S-9, Method: STANDARD PLATE",active; positive
same,mutagenic call,[4],inactive; negative
same,mutagenic call,"Test System: AMES SALMONELLA TYPHIMURIUM, Strain/Indicator: TA1537, Metabolic Activation: RAT, LIVER, S-9, AROCLOR 1254, Method: STANDARD PLATE",inactive; negative
same,mutagenic call,"Test System: AMES SALMONELLA TYPHIMURIUM, Strain/Indicator: TA1537, Metabolic Activation: S-9, Method: STANDARD PLATE",inactive; negative
O=C(Br)CBr,mutagenic call,"End Point: IN VITRO CHROMOSOMAL ABERRATIONS, Test System: CHL CELLS, Metabolic Activation: RAT, LIVER, S-9, SODIUM PHENOBARBITAL AND 5,6-BENZOFLAVONE",inactive; negative; authors report equivocal results for structural changes at 0.02 mg/ml
same,mutagenic call,[5],inactive; negative
same,mutagenic call,"Test System: AMES SALMONELLA TYPHIMURIUM, Strain/Indicator: TA98, Metabolic Activation: RAT, LIVER, S-9, PHENOBARBITAL AND BETA-NAPHTHOFLAVONE, Method: PREINCUBATION",inactive; negative
same,mutagenic call,[6],inactive; negative
same,mutagenic call,"Test System: AMES SALMONELLA TYPHIMURIUM, Strain/Indicator: TA100, Metabolic Activation: RAT, LIVER, S-9, PHENOBARBITAL AND BETA-NAPHTHOFLAVONE, Method: PREINCUBATION",inactive; negative
same,mutagenic call,[7],inactive; negative
same,mutagenic call,"Test System: AMES SALMONELLA TYPHIMURIUM, Strain/Indicator: TA102, Metabolic Activation: RAT, LIVER, S-9, PHENOBARBITAL AND BETA-NAPHTHOFLAVONE, Method: PREINCUBATION",inactive; negative
same,mutagenic call,"Test System: AMES SALMONELLA TYPHIMURIUM, Strain/Indicator: TA104, Metabolic Activation: NONE, Method: PREINCUBATION",active; positive
same,mutagenic call,"Test System: AMES SALMONELLA TYPHIMURIUM, Strain/Indicator: TA104, Metabolic Activation: RAT, LIVER, S-9, PHENOBARBITAL AND BETA-NAPHTHOFLAVONE, Method: PREINCUBATION",active; positive
same,mutagenic call,"Test System: AMES SALMONELLA TYPHIMURIUM, Strain/Indicator: TA1535, Metabolic Activation: NONE, Method: PREINCUBATION",inactive; negative
same,mutagenic call,"Test System: AMES SALMONELLA TYPHIMURIUM, Strain/Indicator: TA1535, Metabolic Activation: RAT, LIVER, S-9, PHENOBARBITAL AND BETA-NAPHTHOFLAVONE, Method: PREINCUBATION",inactive; negative
same,mutagenic call,"Test System: AMES SALMONELLA TYPHIMURIUM, Strain/Indicator: TA1537, Metabolic Activation: NONE, Method: PREINCUBATION",inactive; negative
same,mutagenic call,"Test System: AMES SALMONELLA TYPHIMURIUM, Strain/Indicator: TA1537, Metabolic Activation: RAT, LIVER, S-9, PHENOBARBITAL AND BETA-NAPHTHOFLAVONE, Method: PREINCUBATION",inactive; negative
same,mutagenic call,"Test System: E. COLI, Strain/Indicator: WP2UVRA/PKM101, Metabolic Activation: RAT, LIVER, S-9, PHENOBARBITAL AND BETA-NAPHTHOFLAVONE, Method: PREINCUBATION",active; positive
same,mutagenic call,"Test System: E. COLI, Strain/Indicator: WP2UVRA, Metabolic Activation: NONE, Method: PREINCUBATION",inactive; negative
same,mutagenic call,"Test System: E. COLI, Strain/Indicator: WP2UVRA, Metabolic Activation: RAT, LIVER, S-9, PHENOBARBITAL AND BETA-NAPHTHOFLAVONE, Method: PREINCUBATION",inactive; negative
ClCCNCCCNc1c2ccccc2nc2c1ccc1cccnc12,mutagenic call,[1],active; positive
same,mutagenic call,[2],active; positive
same,mutagenic call,[3],inactive; negative
same,mutagenic call,"Test System: AMES SALMONELLA TYPHIMURIUM, Strain/Indicator: TA1536, Metabolic Activation: NONE, Method: STANDARD PLATE",active; positive
same,mutagenic call,[4],active; positive
same,mutagenic call,"Test System: AMES SALMONELLA TYPHIMURIUM, Strain/Indicator: TA1538, Metabolic Activation: NONE, Method: STANDARD PLATE",active; positive
C[n+]1c2n(c(=O)c3ccccc31)CCc1c-2[nH]c2ccccc12,mutagenic call,[1],inactive; negative
same,mutagenic call,"Test System: AMES SALMONELLA TYPHIMURIUM, Strain/Indicator: TA98, Metabolic Activation: RAT LIVER S-9, AROCLOR 1254 (10%), Method: STANDARD PLATE",inactive; negative
same,mutagenic call,[2],inactive; negative
same,mutagenic call,"Test System: AMES SALMONELLA TYPHIMURIUM, Strain/Indicator: TA100, Metabolic Activation: RAT LIVER S-9, AROCLOR 1254 (10%), Method: STANDARD PLATE",inactive; negative
same,mutagenic call,[3],inactive; negative
same,mutagenic call,"Test System: AMES SALMONELLA TYPHIMURIUM, Strain/Indicator: TA1535, Metabolic Activation: RAT LIVER S-9, AROCLOR 1254 (10%), Method: STANDARD PLATE",inactive; negative
same,mutagenic call,[4],inactive; negative
same,mutagenic call,"Test System: AMES SALMONELLA TYPHIMURIUM, Strain/Indicator: TA1537, Metabolic Activation: RAT LIVER S-9, AROCLOR 1254 (10%), Method: STANDARD PLATE",inactive; negative
O=c1c2[nH]c3ccccc3c2nnn1/N=C/c1ccc(Cl)cc1,mutagenic call,"Test System: AMES SALMONELLA TYPHIMURIUM, Strain/Indicator: TA97, Metabolic Activation: NONE, Method: PREINCUBATION",inactive; negative
same,mutagenic call,"Test System: AMES SALMONELLA TYPHIMURIUM, Strain/Indicator: TA97, Metabolic Activation: RAT, LIVER, S-9, AROCLOR 1254 (10%), Method: PREINCUBATION",active; positive
same,mutagenic call,[5],active; positive
same,mutagenic call,"Test System: AMES SALMONELLA TYPHIMURIUM, Strain/Indicator: TA98, Metabolic Activation: RAT, LIVER, S-9, AROCLOR 1254 (10%), Method: PREINCUBATION",active; positive
same,mutagenic call,[6],inactive; negative
same,mutagenic call,"Test System: AMES SALMONELLA TYPHIMURIUM, Strain/Indicator: TA100, Metabolic Activation: RAT, LIVER, S-9, AROCLOR 1254 (10%), Method: PREINCUBATION",active; positive
same,mutagenic call,[7],inactive; negative
same,mutagenic call,"Test System: AMES SALMONELLA TYPHIMURIUM, Strain/Indicator: TA102, Metabolic Activation: RAT, LIVER, S-9, AROCLOR 1254 (10%), Method: PREINCUBATION",inactive; negative
CC1(C)[C@H](C(=O)OCc2cccc(Oc3ccccc3)c2)[C@@H]1C=C(Cl)Cl,mutagenic call,"Test System: AMES SALMONELLA TYPHIMURIUM, Strain/Indicator: TA97, Metabolic Activation: NONE, Method: STANDARD PLATE",inactive; negative
same,mutagenic call,"Test System: AMES SALMONELLA TYPHIMURIUM, Strain/Indicator: TA97, Metabolic Activation: RAT, LIVER, S-9, PHENOBARBITONE, Method: STANDARD PLATE",inactive; negative
same,mutagenic call,[1],inactive; negative
same,mutagenic call,"Test System: AMES SALMONELLA TYPHIMURIUM, Strain/Indicator: TA98, Metabolic Activation: RAT, LIVER, S-9, PHENOBARBITONE, Method: STANDARD PLATE",inactive; negative
same,mutagenic call,[2],inactive; negative
same,mutagenic call,"Test System: AMES SALMONELLA TYPHIMURIUM, Strain/Indicator: TA100, Metabolic Activation: RAT, LIVER, S-9, PHENOBARBITONE, Method: STANDARD PLATE",inactive; negative
same,mutagenic call,"Test System: AMES SALMONELLA TYPHIMURIUM, Strain/Indicator: TA104, Metabolic Activation: NONE, Method: STANDARD PLATE",inactive; negative
same,mutagenic call,"Test System: AMES SALMONELLA TYPHIMURIUM, Strain/Indicator: TA104, Metabolic Activation: RAT, LIVER, S-9, PHENOBARBITONE, Method: STANDARD PLATE",inactive; negative
